# According to PMC2994747, “Molecular Characterization of c-Abl/c-Src Kinase Inhibitors Targeted against Murine Tumour Progenitor Cells that Express Stem Cell Markers” (PLoS ONE, 2010):
# Structures can show the parent of a compound that is named as a salt. Where two headings read alike, the source gives them in different places.
# Columns and labels:
# [1] = system: leukaemia cells; details: cited from earlier work
# [2] = system: A549; assay: MTS cell viability assay; type: cell-based, human; details: Homo sapiens
# In short: (§1)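 Triplicate monolayer cultures receive dual kinase inhibitors or 0.2% DMSO for 24 h or 96 h. MTS absorbance at 490 nm, after 1 h incubation with reagent, serves as the viability measure.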
# [3] = system: CaCo2; assay: MTS cell viability assay; type: cell-based, human; details: Homo sapiens
# In short: as §1
# [4] = system: HepG2; assay: MTS cell viability assay; type: cell-based, human; details: Homo sapiens
# In short: as §1
# [5] = system: GammaD12; assay: Cell cycle analysis by flow cytometry; type: cell-based, mouse; details: IC50 concentration, 96 h
# In short: (§2)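 Flow cytometric cell-cycle profiling follows trypsin harvest and PBS washing, with staining via a three-reagent DNA kit (first incubation 10 min at room temperature; final one at 4°C, light-protected) and storage on ice until measurement.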
# [6] = system: A2C12; assay: Cell cycle analysis by flow cytometry; type: cell-based, mouse; details: IC50 concentration, 96 h
# In short: as §2
# [7] = system: GammaA3; assay: Cell cycle analysis by flow cytometry; type: cell-based, mouse; details: IC50 concentration, 96 h
# In short: as §2
# [8] = system: BetaD5; assay: Cell cycle analysis by flow cytometry; type: cell-based, mouse; details: IC50 concentration, 96 h
# In short: as §2
# [9] = biological target: T1, c-Src (Homo sapiens, UniProt P12931); assay: Src filter-binding kinase assay (Src Assay Kit); type: biochemical; details: isolated Src; calculated from ID50, ATP-competitive; E0 0.005, S0 0.012 µM
# T1 construct: His tag; purchased Upstate (Lake Placid, NY, USA)
# Experimental: (§3) Baculovirus-produced recombinant purified his-tagged active against human Src and Abl were purchased from Upstate (Lake Placid, NY, USA).
# (§4) Src activity was measured in a filter-binding assay using the Src Assay Kit (Upstate, Lake Placid, NY, USA), according to the manufacturer's protocol, using the specific Src peptide substrate [[…]] in the presence of 0.125 pmol of Src and 0.160 pmol of [γ-^32P]ATP. Abl activity was measured in a filter-binding assay using an Abl specific peptide substrate (Abtide, Upstate). Reaction conditions were (in a final volume of 10 µl): 25 mM Tris-HCl pH 7.5, 1 mM DTT, 0.012 µM [γ-^32P]ATP, 0.022 µM c-Abl. Reactions were incubated 10 min at 30°C.The samples (9 µl) were spotted on paper cellulose filters which were washed according to the manufacturer's protocol. Filter-bound radioactivity was measured by liquid scintillation with a Microbeta-Trilux apparatus (PerkinElmer, Waltham, MA, USA).
# (§5) The ID50 were converted to Ki according to a competitive mechanism with respect to the substrate ATP. […] Since (i) the ATP concentration was limiting, i.e., [ATP], Km(ATP), and (ii) the enzyme concentration was not negligible with respect to the ATP concentration, the classical Cheng-Prusoff relationship was not applicable. Consequently, Ki values were calculated according to [drawing 3] (2) where S0 is the concentration of the competing substrate (ATP) and E0 is the concentration of the enzyme. Each experiment was done in triplicate and mean values were used for the interpolation. Curve fitting was performed with the program GraphPad Prism.
# [10] = biological target: T2, c-Abl (Homo sapiens, UniProt P00519); assay: Abl filter-binding kinase assay (Abtide, [γ-32P]ATP); type: biochemical; details: isolated Abl; calculated from ID50, ATP-competitive; E0 0.005, S0 0.012 µM
# T2 construct: His tag; purchased Upstate (Lake Placid, NY, USA)
# Experimental: as §3, §4, §5
# [11] = system: A549; assay: Cell cycle analysis by flow cytometry; type: cell-based, human; details: IC50 concentration, 96 h
# In short: as §2
# [12] = system: CaCo2; assay: Cell cycle analysis by flow cytometry; type: cell-based, human; details: IC50 concentration, 96 h
# In short: as §2
# [13] = system: HepG2; assay: Cell cycle analysis by flow cytometry; type: cell-based, human; details: IC50 concentration, 96 h
# In short: as §2
# [14] = system: GammaD12; assay: MTS cell viability assay; type: cell-based, mouse; details: Mus musculus, MTS
# In short: as §1
# [15] = system: A2C12; assay: MTS cell viability assay; type: cell-based, mouse; details: Mus musculus
# In short: as §1
# [16] = system: GammaA3; assay: MTS cell viability assay; type: cell-based, mouse; details: Mus musculus
# In short: as §1
# [17] = system: BetaD5; assay: MTS cell viability assay; type: cell-based, mouse; details: Mus musculus
# In short: as §1
# [18] = 24 h, read-out: Calculated IC50 after single treatment for 24 h
# [19] = 96 h, read-out: Calculated IC50 after daily treatment for 96 h
# T1 sequence (P12931 whole entry): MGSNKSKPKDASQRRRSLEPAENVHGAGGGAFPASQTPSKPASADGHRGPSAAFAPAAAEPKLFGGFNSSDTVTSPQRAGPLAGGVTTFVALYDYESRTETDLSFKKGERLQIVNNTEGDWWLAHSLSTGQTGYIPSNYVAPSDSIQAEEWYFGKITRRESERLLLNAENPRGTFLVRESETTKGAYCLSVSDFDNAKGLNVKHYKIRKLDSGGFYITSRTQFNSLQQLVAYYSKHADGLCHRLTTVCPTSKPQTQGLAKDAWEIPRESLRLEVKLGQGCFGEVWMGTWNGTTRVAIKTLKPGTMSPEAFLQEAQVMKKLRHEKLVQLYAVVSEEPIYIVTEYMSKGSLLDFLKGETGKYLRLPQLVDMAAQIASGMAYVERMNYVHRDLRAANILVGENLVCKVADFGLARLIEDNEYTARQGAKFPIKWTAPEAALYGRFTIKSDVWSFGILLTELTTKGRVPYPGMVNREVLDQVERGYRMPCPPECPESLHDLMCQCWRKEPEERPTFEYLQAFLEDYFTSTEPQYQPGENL
# T2 sequence (P00519 whole entry): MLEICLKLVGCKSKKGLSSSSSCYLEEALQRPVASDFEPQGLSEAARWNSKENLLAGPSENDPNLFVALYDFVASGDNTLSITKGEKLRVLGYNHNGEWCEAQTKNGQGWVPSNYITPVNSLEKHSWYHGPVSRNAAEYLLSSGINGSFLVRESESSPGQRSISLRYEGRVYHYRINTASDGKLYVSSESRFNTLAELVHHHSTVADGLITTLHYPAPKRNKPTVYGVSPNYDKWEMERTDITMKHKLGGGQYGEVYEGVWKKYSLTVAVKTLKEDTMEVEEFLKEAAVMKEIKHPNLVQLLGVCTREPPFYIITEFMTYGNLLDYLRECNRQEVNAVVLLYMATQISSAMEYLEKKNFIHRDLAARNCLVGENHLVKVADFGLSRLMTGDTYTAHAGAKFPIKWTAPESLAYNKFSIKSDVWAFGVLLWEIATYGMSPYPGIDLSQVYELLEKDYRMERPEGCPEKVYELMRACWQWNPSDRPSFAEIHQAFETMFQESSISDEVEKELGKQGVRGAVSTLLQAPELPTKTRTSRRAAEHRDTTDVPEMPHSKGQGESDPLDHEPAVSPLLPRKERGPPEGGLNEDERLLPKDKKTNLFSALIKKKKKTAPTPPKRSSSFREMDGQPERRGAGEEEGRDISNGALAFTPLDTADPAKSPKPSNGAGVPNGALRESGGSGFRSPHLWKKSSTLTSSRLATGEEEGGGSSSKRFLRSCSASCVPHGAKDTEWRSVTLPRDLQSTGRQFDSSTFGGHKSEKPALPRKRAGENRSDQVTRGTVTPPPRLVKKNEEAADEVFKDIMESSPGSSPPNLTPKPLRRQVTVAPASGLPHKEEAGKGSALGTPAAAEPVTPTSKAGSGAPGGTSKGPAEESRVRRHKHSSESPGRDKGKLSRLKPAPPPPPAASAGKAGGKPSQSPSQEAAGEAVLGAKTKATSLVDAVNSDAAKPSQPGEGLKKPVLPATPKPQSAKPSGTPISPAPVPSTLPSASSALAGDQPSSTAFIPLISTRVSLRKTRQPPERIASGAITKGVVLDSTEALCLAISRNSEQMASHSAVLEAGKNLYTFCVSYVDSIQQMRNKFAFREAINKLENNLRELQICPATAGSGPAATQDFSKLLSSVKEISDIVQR
smiles,measurement,setting,value
"Cc1ccc(NC(=O)c2ccc(CN3CCN(C)CC3)cc2)cc1Nc1nccc(-c2cccnc2)n1 [Imatinib, Imatinib mesylate]",Antiproliferative effect for leukaemia cells,[1],submicromolar range
CC(C)Sc1nc(NCCc2ccccc2)c2cnn(CC(Cl)c3ccccc3)c2n1 (stereo not drawn) [Si142],IC50,"[2]; A549, 24 h, 24 h, read-out: Calculated IC50 after single treatment for 24 h",> 100 µM
same,IC50,"[2]; A549, 96 h, 96 h, read-out: Calculated IC50 after daily treatment for 96 h",8.1 ± 0.7 µM
same,IC50,"[3]; Caco-2, 24 h, read-out: Calculated IC50 after single treatment for 24 h",89.2 ± 4.6 µM
same,IC50,"[3]; Caco-2, 96 h, read-out: Calculated IC50 after daily treatment for 96 h",6.8 ± 0.9 µM
same,IC50,[4]; [18],89.2 ± 4.6 µM
same,IC50,[4]; [19],16.9 ± 2.6 µM
same,Cells in G1 phase,[5],33.7%
same,Cells in G2 phase,[5],6.6%
same,Cells in S phase,[5],59.7%
same,Cells in G1 phase,[6],71.3%
same,Cells in G2 phase,[6],13.4%
same,Cells in S phase,[6],15.3%
same,Cells in G1 phase,[7],67%
same,Cells in G2 phase,[7],15.5%
same,Cells in S phase,[7],17.5%
same,Cells in G1 phase,[8],53.6%
same,Cells in G2 phase,[8],25.8%
same,Cells in S phase,[8],20.6%
same,Ki,[9],2 µM
same,Ki,[10],0.12 µM
same,Cells in G1 phase,[11],75.4%
same,Cells in G2 phase,[11],2.2%
same,Cells in S phase,[11],25.7%
same,Cells in G1 phase,[12],55.6%
same,Cells in G2 phase,[12],11.5%
same,Cells in S phase,[12],32.9%
same,Cells in G1 phase,[13],53.5%
same,Cells in G2 phase,[13],7.9%
same,Cells in S phase,[13],38.6%
same,IC50,[14]; [18],11.8 ± 1.6 µM
same,IC50,[14]; [19],7.7 ± 0.5 µM
same,IC50,[15]; [18],40.4 ± 2.1 µM
same,IC50,[15]; [19],5.3 ± 0.2 µM
same,IC50,[16]; [18],18.7 ± 4 µM
same,IC50,[16]; [19],7.1 ± 0.5 µM
same,IC50,[17]; [18],11 ± 0.7 µM
same,IC50,[17]; [19],8.7 ± 0.7 µM
same,melting point,,125 to 126 °C
